According to patent publication US11214803B2, “Modulators of YAP1 expression” (Ionis Pharmaceuticals, Inc., priority 2019, dated 2022):
Strand notation (5' to 3'): a small letter for the sugar, then the base; units joined by * are phosphorothioate-linked, units joined directly phosphodiester-linked; [ ] holds rarer units or linkages, { } end groups; capitals alone tell only the bases. e = 2'-O-(2-methoxyethyl) (MOE); k = constrained ethyl (cEt); [5mC] = 5-methylcytosine; d = 2'-deoxy (DNA); m = 2'-O-methyl

System: Yap1 mRNA
Assay: Antisense inhibition of human Yap1 in SNU-449 cells by modified oligonucleotides, single dose (Example 5, RTS36584)
Assay type: cell-based
Conditions: Table 42 (separate experiment); SNU-449 cells, 10,000 cells per well, free uptake, 2,000 nM modified oligonucleotide, approximately 48 hours; RTS36584; normalized to RIBOGREEN; Yap1 mRNA relative to untreated control cells
Summary of the method: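 Values are % of untreated control: Yap1 mRNA by quantitative RT-PCR (RTS36584), normalized to RIBOGREEN total RNA. Oligonucleotides were dosed at 2,000 nM, free uptake, in SNU-449 cells, with roughly 48 h exposure before RNA isolation.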

Substance	YAP1 (% UTC)
1198198 (kT*kG*dT*d[5mC]*dT*d[5mC]*dA*dT*dG*d[5mC]*d[5mC]*eT*eT*eA*kT*kA; antisense) [Compound 1198198]	29 % UTC
1198199 (kA*kT*dT*dG*dT*d[5mC]*dT*d[5mC]*dA*dT*dG*e[5mC]*e[5mC]*eT*kT*kA; antisense) [Compound 1198199]	38 % UTC
1198200 (kA*kA*dT*dT*dG*dT*d[5mC]*dT*d[5mC]*dA*dT*eG*e[5mC]*e[5mC]*kT*kT; antisense) [Compound 1198200]	49 % UTC
1198201 (kA*kA*dA*dT*dT*dG*dT*d[5mC]*dT*d[5mC]*dA*eT*eG*e[5mC]*k[5mC]*kT; antisense) [Compound 1198201]	34 % UTC
1198202 (kG*kA*dA*dA*dT*dT*dG*dT*d[5mC]*dT*d[5mC]*eA*eT*eG*k[5mC]*k[5mC]; antisense) [Compound 1198202]	14 % UTC
1198203 (kG*kG*dA*dA*dA*dT*dT*dG*dT*d[5mC]*dT*e[5mC]*eA*eT*kG*k[5mC]; antisense) [Compound 1198203]	19 % UTC
1198204 (kT*kG*dG*dA*dA*dA*dT*dT*dG*dT*d[5mC]*eT*e[5mC]*eA*kT*kG; antisense) [Compound 1198204]	31 % UTC
1198205 (kA*kT*dG*dG*dA*dA*dA*dT*dT*dG*dT*e[5mC]*eT*e[5mC]*kA*kT; antisense) [Compound 1198205]	64 % UTC
1198206 (kA*kT*dA*dT*dG*dG*dA*dA*dA*dT*dT*eG*eT*e[5mC]*kT*k[5mC]; antisense) [Compound 1198206]	43 % UTC
1198207 (kA*kG*dT*dA*dT*dG*dT*dG*dG*d[5mC]*dA*eA*eT*eA*kA*kT; antisense) [Compound 1198207]	91 % UTC
1198208 (kA*kG*dA*dG*dT*dA*dT*dG*dT*dG*dG*e[5mC]*eA*eA*kT*kA; antisense) [Compound 1198208]	25 % UTC
1198209 (kT*kA*dG*dA*dG*dT*dA*dT*dG*dT*dG*eG*e[5mC]*eA*kA*kT; antisense) [Compound 1198209]	45 % UTC
1198210 (kT*kT*dA*dG*dA*dG*dT*dA*dT*dG*dT*eG*eG*e[5mC]*kA*kA; antisense) [Compound 1198210]	28 % UTC
1198211 (kA*kT*dT*dA*dG*dA*dG*dT*dA*dT*dG*eT*eG*eG*k[5mC]*kA; antisense) [Compound 1198211]	19 % UTC
1198212 (kT*kA*dT*dT*dA*dG*dA*dG*dT*dA*dT*eG*eT*eG*kG*k[5mC]; antisense) [Compound 1198212]	17 % UTC
1198213 (kA*kT*dA*dT*dT*dA*dG*dA*dG*dT*dA*eT*eG*eT*kG*kG; antisense) [Compound 1198213]	16 % UTC

Substance	YAP1 (% UTC)
1198214 (kT*kA*dT*dA*dT*dT*dA*dG*dA*dG*dT*eA*eT*eG*kT*kG; antisense) [Compound 1198214]	91 % UTC
1198215 (kT*k[5mC]*dT*dA*dT*dA*dT*dT*dA*dG*dA*eG*eT*eA*kT*kG; antisense) [Compound 1198215]	120 % UTC
1198221 (kT*kT*dA*d[5mC]*dA*dT*dT*dA*dG*dG*dA*eA*e[5mC]*eA*kA*kG) [Compound 1198221]	95 % UTC
1198222 (kT*kT*dT*dT*dA*d[5mC]*dA*dT*dT*dA*dG*eG*eA*eA*k[5mC]*kA) [Compound 1198222]	87 % UTC
1198223 (k[5mC]*kT*dT*dT*dT*dA*d[5mC]*dA*dT*dT*dA*eG*eG*eA*kA*k[5mC]) [Compound 1198223]	94 % UTC
1198224 (kA*k[5mC]*dT*dT*dT*dT*dA*d[5mC]*dA*dT*dT*eA*eG*eG*kA*kA) [Compound 1198224]	74 % UTC
1198225 (k[5mC]*kA*d[5mC]*dT*dT*dT*dT*dA*d[5mC]*dA*dT*eT*eA*eG*kG*kA) [Compound 1198225]	67 % UTC
1198226 (kG*k[5mC]*dA*d[5mC]*dT*dT*dT*dT*dA*d[5mC]*dA*eT*eT*eA*kG*kG) [Compound 1198226]	23 % UTC
1198227 (kA*kG*d[5mC]*dA*d[5mC]*dT*dT*dT*dT*dA*d[5mC]*eA*eT*eT*kA*kG; antisense) [Compound 1198227]	104 % UTC
1198228 (kA*kA*dG*d[5mC]*dA*d[5mC]*dT*dT*dT*dT*dA*e[5mC]*eA*eT*kT*kA) [Compound 1198228]	54 % UTC
1198229 (kT*kT*dA*dA*dG*d[5mC]*dA*d[5mC]*dT*dT*dT*eT*eA*e[5mC]*kA*kT) [Compound 1198229]	80 % UTC
1198230 (kG*kG*dA*dA*dG*dA*dT*d[5mC]*dT*dG*dA*eA*eA*e[5mC]*kT*k[5mC]) [Compound 1198230]	81 % UTC
1198231 (kT*kT*dG*dG*dA*dA*dG*dA*dT*d[5mC]*dT*eG*eA*eA*kA*k[5mC]) [Compound 1198231]	73 % UTC
1198232 (kT*kT*dT*dG*dG*dA*dA*dG*dA*dT*d[5mC]*eT*eG*eA*kA*kA) [Compound 1198232]	92 % UTC
1198233 (k[5mC]*kT*dT*dT*dG*dG*dA*dA*dG*dA*dT*e[5mC]*eT*eG*kA*kA) [Compound 1198233]	49 % UTC

Same assay, conditions: Table 43 experiment; SNU-449 cells, 10,000 cells per well, free uptake, 2,000 nM, approximately 48 hours; RTS36584; Yap1 mRNA normalized to RIBOGREEN, relative to untreated control cells

Substance	YAP1 (% UTC)
1198216 (kT*kA*dT*dA*dA*d[5mC]*dT*dG*dG*dG*d[5mC]*eA*eA*eA*kT*kT; antisense) [Compound 1198216]	89 % UTC
1198217 (kG*kG*dT*dA*dT*dA*dA*d[5mC]*dT*dG*dG*eG*e[5mC]*eA*kA*kA; antisense) [Compound 1198217]	57 % UTC
1198218 (kA*kG*dG*dT*dA*dT*dA*dA*d[5mC]*dT*dG*eG*eG*e[5mC]*kA*kA; antisense) [Compound 1198218]	40 % UTC
1198219 (kG*kA*dG*dG*dT*dA*dT*dA*dA*d[5mC]*dT*eG*eG*eG*k[5mC]*kA; antisense) [Compound 1198219]	22 % UTC
1198220 (kA*kA*d[5mC]*dA*d[5mC]*dT*dG*dA*dG*dG*dT*eA*eT*eA*kA*k[5mC]; antisense) [Compound 1198220]	89 % UTC

Same assay, conditions: Table 51; Yap1 mRNA remaining as percent of untreated control (UT), SNU-449 cells, single dose

Substance	YAP1 (% UT)
1197302 (k[5mC]*kA*kG*dA*mU*dT*dT*dA*dG*dG*dA*dT*dG*k[5mC]*kA*kT; antisense) [Compound 1197302]	54 % UT
1197303 (k[5mC]*kT*kT*dA*mU*dA*dT*dG*dG*dT*dT*dT*dT*kG*kT*kG; antisense) [Compound 1197303]	72 % UT
1197304 (k[5mC]*kT*k[5mC]*dT*mU*dA*dT*dA*dT*dG*dG*dT*dT*kT*kT*kG; antisense) [Compound 1197304]	45 % UT
1197305 (kA*k[5mC]*kT*d[5mC]*mU*dT*dA*dT*dA*dT*dG*dG*dT*kT*kT*kT; antisense) [Compound 1197305]	30 % UT
1197306 (k[5mC]*kA*kA*d[5mC]*mU*d[5mC]*dT*dT*dA*dT*dA*dT*dG*kG*kT*kT; antisense) [Compound 1197306]	77 % UT
1197307 (kA*kT*kA*dT*mU*dG*d[5mC]*dA*dA*dT*d[5mC]*dT*dG*kT*k[5mC]*kT; antisense) [Compound 1197307]	88 % UT
1197308 (kA*kA*kT*dA*mU*dT*dG*d[5mC]*dA*dA*dT*d[5mC]*dT*kG*kT*k[5mC]; antisense) [Compound 1197308]	49 % UT
1197309 (kG*kT*kA*dA*mU*dA*dT*dT*dG*d[5mC]*dA*dA*dT*k[5mC]*kT*kG; antisense) [Compound 1197309]	11 % UT
1197310 (kT*kA*kT*dG*mU*dA*dA*dT*dA*dT*dT*dG*d[5mC]*kA*kA*kT; antisense) [Compound 1197310]	109 % UT
1197311 (kT*kT*kT*dA*mU*dG*dT*dA*dA*dT*dA*dT*dT*kG*k[5mC]*kA; antisense) [Compound 1197311]	27 % UT
1197312 (kT*kG*kT*dA*mU*dG*dT*d[5mC]*dA*dG*dA*dA*dG*kA*kG*kT; antisense) [Compound 1197312]	10 % UT
1197313 (kA*kG*kT*dG*mU*dA*dT*dG*dT*d[5mC]*dA*dG*dA*kA*kG*kA; antisense) [Compound 1197313]	8 % UT
1197314 (kA*kA*kA*dG*mU*dG*dT*dA*dT*dG*dT*d[5mC]*dA*kG*kA*kA; antisense) [Compound 1197314]	22 % UT
1197315 (kA*kA*k[5mC]*dT*mU*dT*dA*dA*dA*dG*dT*dG*dT*kA*kT*kG; antisense) [Compound 1197315]	116 % UT
1197316 (kT*kA*kA*dG*mU*dA*dA*dG*dG*dT*dT*dT*d[5mC]*k[5mC]*k[5mC]*kA; antisense) [Compound 1197316]	46 % UT
1197317 (kA*kG*kA*d[5mC]*mU*dA*dA*dG*dT*dA*dA*dG*dG*kT*kT*kT; antisense) [Compound 1197317]	78 % UT
